Literature values in patent publication US12194073B1, “Method of arthropod egress” (priority 2023, dated 2025).
Read-outs that look alike come from different tables or passages of the source.

Tests used:
[1] = squalane, with/without mineral oil, as vehicle
[2] = for therapeutic effect: suspension in vegetable oils, glycerol, mineral oil and white petrolatum
[3] = solution in SFA (F4H5)
[4] = for ocular adverse effects: suspension in vegetable oils, glycerol, mineral oil and white petrolatum
[5] = for shelf stability at ambient temperature: suspension in vegetable oils, glycerol, mineral oil and white petrolatum
[6] = for drug payload: solution in squalane, with/without mineral oil
[7] = not given; remark: listed apart in the source
[8] = self-emulsifying system; corn oil, PEG-6 esters, Tween 80 and Transcutol
[9] = not given; remark: listed apart in the source
Demodex folliculorum = details: all three concentrations; in vitro; vs 5% permethrin
[10] = suspension in sesame seed oil vs high-dose viscous aqueous formulation
[11] = oleogel, soyabean oil, beeswax and gelator
[12] = self-emulsifying system, corn oil, PEG-6 esters, Tween 80 and Transcutol
[13] = self-emulsifying system, Capmul MCM, Cremophor RH 40, Transcutol and hydroxypropylmethyl cellulose
[14] = self-emulsifying system, S-protected thiolated Eudragit L100-55-BAK ion pair, Labrafil M 1944CS
[15] = solution in DMSO and castor oil

In the case of `CC(C)CCCC(C)CCCC(C)CCCCC(C)CCCC(C)CCCC(C)C` (stereo not drawn) [Squalane], the “symptomatic relief in DED (vehicle)” value [1] is given as “Vehicle beneficial for symptomatic relief in DED;”.
In the case of `CNC[C@H](O)c1cccc(O)c1` [Phenylephrine], the onset of action [2, 10] is given as “Faster” and the therapeutic response [2, 10] is given as “higher”.
For `C=CC[C@@H]1/C=C(\C)C[C@H](C)C[C@H](OC)[C@H]2O[C@@](O)(C(=O)C(=O)N3CCCC[C@H]3C(=O)O[C@H](/C(C)=C/[C@@H]3CC[C@@H](O)[C@H](OC)C3)[C@H](C)[C@@H](O)CC1=O)[C@H](C)C[C@@H]2OC` [Tacrolimus], the intraocular penetration (solution in SFA (F4H5) vs aqueous suspension) is listed as “greater intraocular penetration than aqueous” and the “clinical signs of uveitis” value [3] is listed as “Significant improvement in clinical signs of uveitis;”.
In the case of `Cc1ccccc1N1CCN(CCc2nnc3n2CCCC3)CC1` [dapiprazole], the ocular adverse effects [4] is given as “reduced”, the “shelf stability at ambient temperature” value [5] is given as “adverse effects; improved shelf stability at ambient” and the therapeutic effect [2] is given as “Improved”.
In the case of `CC[C@@H]1/C=C(\C)C[C@H](C)C[C@H](OC)[C@H]2O[C@@](O)(C(=O)C(=O)N3CCCC[C@H]3C(=O)O[C@H](/C(C)=C/[C@@H]3CC[C@H](Cl)[C@H](OC)C3)[C@H](C)[C@@H](O)CC1=O)[C@H](C)C[C@@H]2OC` [Pimecrolimus], the drug payload [6] is listed as “high drug payload; potential to reduce dosing”, the safety ([7]; dog, in vivo) is listed as “Better” and the clinical outcomes ([7]; solution in corn oil vs ointments, dogs with DED) is listed as “Better clinical outcomes”.
In the case of `CC[C@@H]1C(=O)OC[C@@H]1Cc1cncn1C` [Pilocarpine], the ocular adverse effects [4] is given as “reduced”, the “shelf stability at ambient temperature” value [5] is given as “adverse effects; improved shelf stability at ambient” and the therapeutic effect [2] is given as “Improved”.
In the case of `C[C@]12C=CC(=O)C=C1CC[C@H]1[C@@H]3C[C@@H](O)[C@](O)(C(=O)CO)[C@@]3(C)C[C@H](O)[C@@]12F` [triamcinolone], the drug release [6, 11] is given as “Extended” and the “release profile and oleogel texture” value [6, 11] is given as “customisable”.
For `CC[C@H]1OC(=O)[C@H](C)[C@@H](O[C@H]2C[C@@](C)(OC)[C@@H](O)[C@H](C)O2)[C@H](C)[C@@H](O[C@@H]2O[C@H](C)C[C@H](N(C)C)[C@H]2O)[C@](C)(O)C[C@@H](C)CN(C)[C@H](C)[C@@H](O)[C@]1(C)O` [Azithromycin], the “adverse events (if any) in clinical trials” value ([4]; Azyter, solution in MCT) is given as “mild to moderate” and the tolerability ([4]; Azyter, solution in MCT) is given as “well tolerated”.
In the case of `C[C@]12CCC(=O)C=C1CC[C@@H]1[C@@H]2[C@@H](O)C[C@@]2(C)[C@H]1CC[C@]2(O)C(=O)CO` [Hydrocortisone], the drug payload [6] is given as “high drug payload; potential to reduce dosing”.
For `CC(C)OC(=O)CCC/C=C\C[C@@H]1[C@@H](CC[C@@H](O)CCc2ccccc2)[C@H](O)C[C@@H]1O` [Latanoprost], the bioavailability (solution in SFA (F4H5, F6H8)) is given as “eyedrops at relatively lower dose; improved” and the Clinical efficacy ([2]; solution in SFA (F4H5, F6H8) at relatively lower dose vs marketed aqueous eyedrops) is given as “Clinical efficacy comparable to marketed aqueous”.
For `CC(C)N1CCN(c2ccc(OCC3COC(Cn4cncn4)(c4ccc(Cl)cc4Cl)O3)cc2)CC1` (stereo not drawn) [Terconazole], the drug stability [5, 12] is given as “Improved”, the drug release [6, 12] is given as “rapid” and the “conjunctival irritation in vitro” value [8] is given as “no”.
In the case of `CN[C@H](CC(C)C)C(=O)N[C@H]1C(=O)N[C@@H](CC(N)=O)C(=O)N[C@H]2C(=O)N[C@H]3C(=O)N[C@H](C(=O)N[C@H](C(=O)O)c4cc(O)cc(O)c4-c4cc3ccc4O)[C@H](O)c3ccc(c(Cl)c3)Oc3cc2cc(c3O[C@@H]2O[C@H](CO)[C@@H](O)[C@H](O)[C@H]2O[C@H]2C[C@](C)(N)[C@H](O)[C@H](C)O2)Oc2ccc(cc2Cl)[C@H]1O` [Vancomycin], the drug release [6, 11] is listed as “Extended” and the “release profile and oleogel texture” value [6, 11] is listed as “customisable”.
In the case of `Clc1ccc(COC(Cn2ccnc2)c2ccc(Cl)cc2Cl)cc1` (stereo not drawn) [Econazole nitrate], the penetration [13] is given as “Enhanced”, the “in vitro and in vivo safety” value [4, 13] is given as “acceptable in vitro and in vivo safety” and the “in vitro release profile” value [6, 14] is given as “good in vitro release profile; no in vivo studies”. For the same compound, the mucoadhesion [6, 14] was “Mucoadhesive”, the “sustained drug release over” value [6, 14] was 8 h and the onset of action [2, 13] was “faster”.
In the case of ivermectin, the “solubility among the oils tested” value [9] is given as “highest solubility in tea tree oil followed by ethylbutanoate”.
In the case of `O=C(O)CCCCCCCC(=O)O` [azelaic acid], the anti-Demodex efficacy (Demodex folliculorum) is listed as “comparable to that of 5% permethrin”.
In the case of `O=C(O)c1cccc(-c2noc(-c3ccccc3F)n2)c1` [Ataluren], the Sterility [5, 15] is given as “Sterility maintained and drug degradation” and the drug degradation [5, 15] is given as “inhibited; no penetration studies performed”.
In the case of `O=C(O)c1cn(C2CC2)c2cc(N3CCNCC3)c(F)cc2c1=O` [ciprofloxacin], the drug payload [6] is given as “high drug payload; potential to reduce dosing”.
In the case of `C[C@]12C=CC(=O)C=C1CC[C@@H]1[C@@H]2[C@@H](O)C[C@@]2(C)[C@H]1CC[C@]2(O)C(=O)CO` [Prednisolone], the precorneal drainage (self-emulsifying system, linoleic acid, Cremophor RH 40 and propylene glycol) is given as “reduced” and the drug payload [6] is given as “high drug payload; potential to reduce dosing”.
